Reference: patent US20260274833A1 (NiKang Therapeutics, Inc., priority 2022, published 2026)

biological target: T1, CDK2 (Homo sapiens, UniProt P24941); test: Phospho-RB measurement in OVCAR3 cells (HTRF phospho-RB cellular kit); format: cell-based; conditions: inhibition of RB phosphorylation at S807/811 (HTRF, TR-FRET ratio 665/620), 24 h compound treatment, 0.3 to 10,000 nM
T1 construct: endogenous in cells; host or cells: OVCAR3 cells
In short: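 IC50 came from a four-parameter logistic fit of the DMSO-normalized TR-FRET ratio (665/620 nm). That ratio reflects RB phosphorylation at S807/811, read with an HTRF antibody pair 4 h after adding lysate at room temperature.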

Row | IC50 [nM] | Compound
1 | 354 | CC(C)(C)c1nc(-c2cccc(NS(=O)(=O)N3CCc4c3cccc4C(C)(C)O)c2F)c(-c2ccnc(NC3CC4(C3)CS(=O)(=O)C4)n2)s1 [Example 230, N-(3-(2-(tert-butyl)-5-(2-((2,2-dioxido-2-thiaspiro[3.3]heptan-6-yl)amino)-pyrimidin-4-yl)thiazol-4-yl)~2-fluoro-phenyl)-4-(2-hydroxypropan-2-yl)-indoline-1-sulfonamide]
2 | 42.9 | CN1CC2CCC(C1)N2c1nc(-c2cccc(NS(=O)(=O)N3CCc4ccc(C(F)(F)F)cc43)c2F)c(-c2ccnc(N[C@H]3CC[C@H](S(C)(=O)=O)CC3)n2)s1 [Example 294, N-(2-fluoro-3-(2-(3-methyl-3,8-diazabicyclo[3.2.1]octan-8-yl)-5-(2-(((1r,4r)-4-(methylsulfonyl)cyclohexyl)-amino)pyrimidin-4-yl)thiazol-4-yl)phenyl)-6-(trifluoromethyl) indoline-1-sulfonamide]
3 | 328 | CC(C)(C)c1nc(-c2cccc(NS(=O)(=O)N3CCNc4ccccc43)c2F)c(-c2ccnc(NC3CCN(S(=O)(=O)N4CCNCC4)CC3)n2)s1 [Example 129, N-(3-(2-(tert-butyl)-5-(2-((1-(piperazin-1-ylsulfonyl)piperidin-4-yl)amino)-pyrimidin-4-yl)thiazol-4-yl)-2-fluoro-phenyl)-3,4-dihydroquinoxaline-1(2H)-sulfonamide]
4 | 384 | CS(=O)(=O)[C@H]1CC[C@H](Nc2nccc(-c3sc(C4(C(F)(F)F)CC4)nc3-c3cccc(NS(=O)(=O)N4CCc5ccccc54)c3F)n2)CC1 [Example 284, N-(2-fluoro-3-(5-(2-(((11,4r)-4-(methylsulfonyl)cyclohexyl)amino)pyrimidin-4-yl)-2-(1-(trifluoromethyl)-cyclopropyl)thiazol-4-yl)phenyl)-indoline-1-sulfonamide]
5 | 3170 | CNCc1cccc2c1CN(S(=O)(=O)Nc1cccc(-c3nc(C(C)(C)C)sc3-c3ccnc(NC4CCN(S(C)(=O)=O)CC4)n3)c1F)C2 [Example 172, N-(3-(2-(tert-butyl)-5-(2-((1-(methylsulfonyl)-piperidin-4-yl)amino)-pyrimidin-4-yl)thiazol-4-yl)-2-fluoro-phenyl)-4-((methylamino)methyl)-isoindoline-2-sulfonamide]
6 | 31.2 | CC(C)(C)c1nc(-c2cccc(NS(=O)(=O)N3Cc4cccc(C(F)F)c4C3)c2F)c(-c2ccnc(NC3CC4(C3)CS(=O)(=O)C4)n2)s1 [Example 262, N~(3-(2-(tert-butyl)-5-(2-((2,2-dioxido-2-thiaspiro[3.3]heptan-6-yl)amino)-pyrimidin-4-yl)thiazol-4-yl)-2-fluoro-phenyl)-4-(difluoromethyl)-isoindoline-2-sulfonamide]
7 | 285 | CC(C)(C)c1nc(-c2cccc(NS(=O)(=O)N3Cc4ccc(C#N)cc4C3)c2F)c(-c2ccnc(NC3CCN(S(C)(=O)=O)CC3)n2)s1 [Example 97, N-(3-(2-(tert-butyl)-5-(2-((1-(methylsulfonyl)piperidin-4-yl)amino)-pyrimidin-4-yl)thiazol-4-yl)-2-fluorophenyl)-5-cyanoisoindoline-2-sulfonamide]
8 | 130 | CN1CCN(S(=O)(=O)Nc2cccc(-c3nc(C45CC(C4)C5)sc3-c3ccnc(NC4CC5(C4)CS(=O)(=O)C5)n3)c2F)c2ccccc21 [Example 274, N-(3-(2-(bicyclo [1.1.1]pentan-1-yl)-5-(2-((2,2-dioxido-2-thiaspiro[3.3]heptan-6-yl)amino)-pyrimidin-4-yl)thiazol-4-yl)-2-fluorophenyl)-4-methyl-3,4-dihydro-quinoxaline-1(2H)-sulfonamide]
9 | 338 | CC(C)(C)c1nc(-c2cccc(NS(=O)(=O)N3CCc4c(CN5CCOCC5)cccc43)c2F)c(-c2ccnc(NC3CCN(S(C)(=O)=O)CC3)n2)s1 [Example 245, N-(3-(2-(tert-butyl)-5-(2-((1-(methylsulfonyl)piperidin-4-yl)amino)-pyrimidin-4-yl)thiazol-4-yl)-2-fluorophenyl)-4-(morpholinomethyl)-indoline-1-sulfonamide]
10 | 210 | CC1c2ccccc2CN1S(=O)(=O)Nc1cccc(-c2nc(C(C)(C)C)sc2-c2ccnc(NC3CCN(S(=O)(=O)N4CCNCC4)CC3)n2)c1F (centres unmarked) [Example 148, N-(3-(2-(tert-butyl)-5-(2-((1-(piperazin-1-ylsulfonyl)piperidin-4-yl)amino)-pyrimidin-4-yl)thiazol-4-yl)-2-fluoro-phenyl)-1-methylisoindoline-2-sulfonamide]
11 | 215 | CN(C)CCN(C)S(=O)(=O)N1CCC(Nc2nccc(-c3sc(C(C)(C)C)nc3-c3cccc(NS(=O)(=O)N4CCOc5ccccc5C4)c3F)n2)CC1 [Example 105, N-(3-(2-(tert-butyl)-5-(2-((1-(N-(2-(dimethyl-amino)ethyl)-N-methyl-sulfamoyl)piperidin-4-yl)amino)-pyrimidin-4-yl)thiazol-4-yl)-2-fluoro-phenyl)-2,3-dihydrobenzo [f][1,4]-oxazepine-4 (5H)-sulfonamide]
12 | 2070 | CN(C1CC1)S(=O)(=O)Nc1cccc(-c2nc(C(C)(C)C)sc2-c2ccnc(NC3CCN(S(=O)(=O)N4CCNCC4)CC3)n2)c1F [Example 108, N-(3-(2-(tert-butyl)-5-(2-((1-(piperazin-1-yl-sulfonyl)piperidin-4-yl)amino)-pyrimidin-4-yl)thiazol-4-yl)-2-fluoro-phenyl)(N-methyl-N-cyclopro-pylamine)-sulfonamide]
13 | 137 | O=S1(=O)CC2(CC(Nc3nccc(-c4sc(N5C6CCC5CN(CC(F)(F)F)C6)nc4-c4cccc(NS(=O)(=O)N5Cc6cccc(C(F)F)c6C5)c4F)n3)C2)C1 [Example 49]
14 | 122 | CC(C)(c1nc(-c2cccc(NS(=O)(=O)N3CCc4ccccc43)c2F)c(-c2ccnc(N[C@H]3CC[C@H](S(C)(=O)=O)CC3)n2)s1)C(F)(F)F [Example 288, N-(2-fluoro-3-(5-(2-(((1r,4r)-4-(methylsulfonyl)cyclohexyl)amino)-pyrimidin-4-yl)-2-(1,1,1-trifluoro-2-methylpropan-2-yl)thiazol-4-yl)phenyl)-indoline-1-sulfonamide]
15 | 116 | O=S1(=O)CC2(CC(Nc3nccc(-c4sc(C56CC(C5)C6)nc4-c4cccc(NS(=O)(=O)N5CCc6cc(F)c(F)cc65)c4F)n3)C2)C1 [Example 34, N-(3-(2-(bicyclo [1.1.1]pentan-1-yl)-5-(2-((2,2-dioxido-2-thiaspiro[3.3]heptan-6-yl)amino)-pyrimidin-4-yl)thiazol-4-yl)-2-fluorophenyl)-5,6-difluoroindoline-1-sulfonamide]
16 | 366 | CC(C)(C)c1nc(-c2cccc(NS(=O)(=O)N3Cc4ccncc4C3)c2F)c(-c2ccnc(NC3CCN(S(=O)(=O)N4CCNCC4)CC3)n2)s1 [Example 126, N-(3-(2-(tert-butyl)-5-(2-((1-(piperazin-1-ylsulfonyl)piperidin-4-yl)amino)-pyrimidin-4-yl)thiazol-4-yl)-2-fluorophenyl)-1,3-dihydro-2H-pyrrolo[3,4-c] pyridine-2-sulfonamide]
17 | 339 | CN1CCN(S(=O)(=O)Nc2cccc(-c3nc(C45CC(C4)C5)sc3-c3ccnc(NC4CC5(C4)CS(=O)(=O)C5)n3)c2F)Cc2ccccc21 [Example 275, N-(3-(2-(bicyclo [1.1.1]pentan-1-yl)-5-(2-((2,2-dioxido-2-thiaspiro[3.3]heptan-6-yl)amino)-pyrimidin-4-yl)thiazol-4-yl)-2-fluorophenyl)-1-methyl-1,2,3,5-tetrahydro-4H-benzo[e][1,4]-diazepine-4-sulfonamide]
18 | 74.5 | O=S1(=O)CC2(CC(Nc3nccc(-c4sc(C56CC(C5)C6)nc4-c4cccc(NS(=O)(=O)N5CCc6c(F)cc(F)cc65)c4F)n3)C2)C1 [Example 37, N-(3-(2-(bicyclo [1.1.1]pentan-1-yl)-5-(2-((2,2-dioxido-2-thiaspiro[3.3]heptan-6-yl)amino)-pyrimidin-4-yl)thiazol-4-yl)-2-fluorophenyl)-4,6-difluoroindoline-1-sulfonamide]
19 | 4080 | CNCc1ccc2c(c1)CCN2S(=O)(=O)Nc1cccc(-c2nc(C(C)(C)C)sc2-c2ccnc(NC3CCN(S(C)(=O)=O)CC3)n2)c1F [Example 159, N-(3-(2-(tert-butyl)-5-(2-((1-(methylsulfonyl)-piperidin-4-yl)amino)-pyrimidin-4-yl)thiazol-4-yl)-2-fluoro-phenyl)-5-((methylamino)methyl)-indoline-1-sulfonamide]
20 | 82 | CC(C)(C)c1nc(-c2cccc(NS(=O)(=O)N3CCc4c(C#N)cccc43)c2F)c(-c2ccnc(NC3CCN(S(C)(=O)=O)CC3)n2)s1 [Example 104, N-(3-(2-(tert-butyl)-5-(2-((1-(methylsulfonyl)piperidin-4-yl)amino)-pyrimidin-4-yl)thiazol-4-yl)-2-fluorophenyl)-4-cyanoindoline-1-sulfonamide]
21 | 69.2 | CCOc1cccc2c1CN(S(=O)(=O)Nc1cccc(-c3nc(C(C)(C)C)sc3-c3ccnc(NC4CC5(C4)CS(=O)(=O)C5)n3)c1F)C2 [Example 204, N-(3-(2-(tert-butyl)-5-(2-((2,2-dioxido-2-thiaspiro[3.3]heptan-6-yl)amino)-pyrimidin-4-yl)thiazol-4-yl)-2-fluoro-phenyl)-4-ethoxyisoindoline-2-sulfonamide]

Row | Compound | IC50 [nM]
22 | CC(C)(C)c1nc(-c2cccc(NS(=O)(=O)N3Cc4cccc(C5CCCCC5)c4C3)c2F)c(-c2ccnc(NC3CCN(S(C)(=O)=O)CC3)n2)s1 [Example 228, N-(3-(2-(tert-butyl)-5-(2-((1-(methylsulfonyl)-piperidin-4-yl)amino)-pyrimidin-4-yl)thiazol-4-yl)-2-fluoro-phenyl)-4-cyclohexyliso-indoline-2-sulfonamide] | 1510
23 | CS(=O)(=O)C1CCC(Nc2nccc(-c3sc(C45CC(C(F)(F)F)(C4)C5)nc3-c3cccc(NS(=O)(=O)N4Cc5cccc(C(F)F)c5C4)c3F)n2)CC1 (centres unmarked) [Example 58, 4-(difluoromethyl)-N-(2-fluoro-3-(5-(2-(((1r,4r)-4-(methylsulfonyl)cyclohexyl)-amino)pyrimidin-4-yl)-2-(3-(trifluoromethyl)-bicyclo[1.1.1]pentan-1-yl)thiazol-4-yl)phenyl)-isoindoline-2-sulfonamide] | 285
